The subject of experiment [1] is C57BL/6N male mice, bleomycin induced pulmonary fibrosis. As to the kind of experiment: Therapeutic bleomycin induced pulmonary fibrosis 21-day mice model. In kind it is in vivo. Conditions: individual animals, BLM, CpdA 30 mg/kg BID PO D7-D21. Here is the method:
The aim of the study is to test the efficacy of a test compound at three different doses in a 21-day model of bleomycin induced pulmonary fibrosis in mice.
11 week-old C57BL/6N male mice from Charles River (Italy) are maintained on 12 h light/dark cycle at 22° C. with ad libidum access to tap water and food.
On day 0, all mice in groups 2-4 receive a 1.5 U/kg oropharyngeal administration of bleomycin (BLM) to induce pulmonary fibrosis Animals in group 1 are not administered bleomycin, but instead receive a single dose of saline via the oropharyngeal route, and are considered sham control mice.
Animals are examined clinically twice daily. List of clinical signs and parameters are indicated in humane endpoints table. Animals are weighed daily starting from DO.
On day 21, lung functionality is determined. After deep anesthesia induced by an intraperitoneal injection (10 mL/kg) of a solution of xylazine (5 mg/kg) and ketamine (75 mg/kg), the trachea is exposed through midline incision and a cannula is inserted. Mice are ventilated with a tidal volume of 10 mL/kg at a frequency of 150 breaths/minute. FlexiVent (SCIREQ®) perturbations are performed three times. Deep Inflation and Pressure-Volume loops (PV loops) with stepwise increasing pressure are performed to measure the Inspiratory Capacity and stepwise pressure-driven perturbation (PVs-P). PV loops between 0 and 30 cm H2O are generated to obtain Total Lung Capacity (A). A snapshot perturbation maneuver is imposed, which is a threefold sinusoidal wave of in- and expiration controlled by the ventilator, resulting in resistance (Rrs), compliance (Crs), and elastance (Ers) of the whole respiratory system (airways, lung and chest wall). A value for each group is calculated with average FlexiVent-validated measurements recorded in each individual subject.
Then, two hours after the last dose of test substance and nintedanib, mice are sacrificed by anesthetic overdose. The lungs are excised and weighed individually. The lungs are then placed into marked bottles containing 10% buffered formalin for further histopathological evaluation.
Body weight data and lung weight data are processed using MS Excel. Statistical analysis and graphical presentation are performed using GraphPad Prism software (version 5.04).
For histopathological evaluation, whole lungs are embedded in paraffin and stained with Mallory's trichrome.
Pulmonary histological changes are assessed using Matsuse's modification of Ashcroft score (Ashcroft et al., 1988; Matsuse et al., 1999). Statistical analysis and graphical presentation is performed using GraphPad Prism software (version 5.04). Mann-Whitney test is employed.
Differences between groups are considered statistically significant when p<0.05.

Experiment [2] relates to male C57BL/6 mice fed CDAHF diet. As to the kind of experiment: CDAHFD model (choline-deficient, L-amino acid-defined, high-fat diet). In kind it is in vivo. Conditions: individual animals, CDAHFD 10W, 30 mg/kg q.d. p.o.

Where “and” joins values, the source holds several entries; their conditions need not be identical. Equal entries are not always repeated.

With `O=c1nc(OC[C@@H]2COCCO2)cc2n1CCc1cc(C#CC3CC3)ccc1-2` [Compound A, 9-Cyclopropylethynyl-2-((S)-1-[1,4]dioxan-2-ylmethoxy)-6,7-dihydro-pyrimido[6,1-a]isoquinolin-4-one], in experiment [1] (Figure 14 panel B), the “Compliance of the Respiratory System” value is 0.034 mL/cmH2O and 0.030 mL/cmH2O and 0.035 mL/cmH2O and 0.037 mL/cmH2O and 0.036 mL/cmH2O and 0.033 mL/cmH2O and 0.041 mL/cmH2O (2×) and 0.031 mL/cmH2O and 0.038 mL/cmH2O and 0.046 mL/cmH2O and 0.042 mL/cmH2O. In experiment [1] (Figure 14 panel C), the “Elastance of the Respiratory System” value was 29.43 cmH2O/mL and 33.18 cmH2O/mL and 28.94 cmH2O/mL and 26.99 cmH2O/mL and 27.50 cmH2O/mL and 30.18 cmH2O/mL and 24.40 cmH2O/mL and 31.90 cmH2O/mL and 26.35 cmH2O/mL and 21.92 cmH2O/mL and 23.92 cmH2O/mL and 24.49 cmH2O/mL. Besides, in experiment [1] (Matsuse's modification, Figure 13), the “Ashcroft Score” value is 2.4 and 3.0 and 2.5 and 3.3 and 3.4 (2×) and 2.9 (2×) and 2.7 (2×) and 3.6 and 2.3 and 2.0 and 2.1. Moreover, the “Inspiratory Capacity” value in experiment [1] (day 21 FlexiVent, Figure 14 panel A) was 0.58 mL (2×) and 0.66 mL and 0.65 mL and 0.59 mL and 0.75 mL and 0.69 mL (2×) and 0.84 mL and 0.73 mL and 0.71 mL. For the same molecule, in experiment [2] (Fig 12 panel A), the “Col1a1 expression profiles (NRQ-scaled versus Disease-Vehicle)” value is 1.76 and 0.36 and 0.49 and 0.35 and 0.43 and 0.38 and 0.10 and 0.18 and 0.12 and 0.26. In addition, the “TNFα expression profiles (NRQ-scaled versus Disease-Vehicle)” value in experiment [2] (Figure 12 panel B) is 0.53 (2×) and 0.89 and 0.77 and 0.46 and 0.67 and 0.80 and 0.64 and 0.97 and 0.59. Besides, the “Fibrosis (Sirius red area %)” value in experiment [2] (liver, Figure 11) is 0.53% (2×) and 0.89% and 0.77% and 0.46% and 0.67% and 0.80% and 0.64% and 0.97% and 0.59%.

The values above are taken from patent US20210106582A1, “COMPOUNDS AND PHARMACEUTICAL COMPOSITIONS THEREOF FOR USE IN THE TREATMENT OF FIBROTIC DISEASES” (Galapagos NV, priority 2017, published 2021).
